Experimental data taken from patent publication US20260297080A1, “BICYCLIC COMPOUNDS AS CDK INHIBITORS” (BeOne Medicines I GmbH, priority 2022, published 2026).

Assays:
CDK1/Cyclin B1 = CDK1/Cyclin B1 (Homo sapiens, UniProt P06493); assay: CDK1/Cyclin B1 Biochemical Assay (TR-FRET), 0.015 mM ATP; settings: 0.15 μM Rb (Ser780)-biotin substrate, pH7.0, 60 min preincubation, 120 min reaction, room temperature
Method in brief: (§1)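 Kinase preincubated with compound (0–10 μM) 60 min at room temperature, then reaction started with ATP and 0.15 μM Rb (Ser780)-biotin peptide and run 120 min in HEPES pH 7.0 buffer with 50 mM MgCl2. Phospho-Rb detected by Eu-cryptate anti-pRb(Ser780)/streptavidin-XL665 TR-FRET (665/620 nm ratio); IC50 from four-parameter logistic fit.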

CDK2/Cyclin E1 = CDK2/Cyclin E1 (Homo sapiens, UniProt P24941); assay: CDK2/Cyclin E1 Biochemical Assay (TR-FRET), 0.060 mM ATP; settings: 0.15 μM Rb (Ser780)-biotin substrate, pH7.0, 60 min preincubation, 120 min reaction, room temperature
Method in brief: as §1

Sequence of CDK1/Cyclin B1 (P06493 whole entry): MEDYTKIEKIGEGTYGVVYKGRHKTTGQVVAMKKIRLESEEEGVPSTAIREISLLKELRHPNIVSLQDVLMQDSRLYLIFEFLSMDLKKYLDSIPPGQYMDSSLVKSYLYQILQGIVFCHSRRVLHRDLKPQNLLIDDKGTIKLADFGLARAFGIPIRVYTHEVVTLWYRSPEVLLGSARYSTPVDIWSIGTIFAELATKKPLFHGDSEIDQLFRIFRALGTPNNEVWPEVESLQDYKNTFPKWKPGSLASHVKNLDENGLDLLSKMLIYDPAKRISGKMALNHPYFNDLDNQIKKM
Sequence of CDK1/Cyclin B1 (P14635 whole entry partner): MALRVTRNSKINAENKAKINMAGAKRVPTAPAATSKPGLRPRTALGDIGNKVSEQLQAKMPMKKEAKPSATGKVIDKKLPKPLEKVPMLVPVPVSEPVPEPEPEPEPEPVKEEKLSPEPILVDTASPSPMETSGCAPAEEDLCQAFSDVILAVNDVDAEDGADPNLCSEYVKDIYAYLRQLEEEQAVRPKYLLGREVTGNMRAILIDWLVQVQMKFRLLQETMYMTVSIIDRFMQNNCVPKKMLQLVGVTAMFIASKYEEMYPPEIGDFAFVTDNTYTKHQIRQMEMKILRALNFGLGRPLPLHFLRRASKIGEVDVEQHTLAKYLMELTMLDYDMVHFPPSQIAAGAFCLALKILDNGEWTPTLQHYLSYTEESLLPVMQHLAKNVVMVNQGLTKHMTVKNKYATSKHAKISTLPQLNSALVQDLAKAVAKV

| SMILES | IC50 (CDK1/Cyclin B1) | IC50 (CDK2/Cyclin E1) |
| --- | --- | --- |
| CC[C@H](C)NC(=O)O[C@H]1CC[C@@H](c2cc(Nc3ccc4c(c3F)CN(C3COC3)S4(=O)=O)n[nH]2)C1 (single isomer, unassigned) [Example 134b] | 120 nM | 1.3 nM |
| CC[C@H](C)NC(=O)O[C@H]1CC[C@@H](c2cc(Nc3ccc4c(c3F)CNS4(=O)=O)n[nH]2)C1 (single isomer, unassigned) [Example 139a] | 223 nM | 1.2 nM |
| O=C(NC1CCC(O)CC1)O[C@H]1CC[C@@H](c2cc(Nc3ccc4c(c3F)CNS4(=O)=O)n[nH]2)C1 (single isomer, unassigned) [Example 142, cis-3-(3-((4-fluoro-1,1-dioxido-2,3-dihydrobenzo[d]isothiazol-5-yl)amino)-1H-pyrazol-5-yl)cyclopentyl(4-hydroxycyclohexyl)carbamate] | 46 nM | 1.2 nM |
| O=C(NC1CCC(O)CC1)O[C@H]1CC[C@@H](c2cc(Nc3ccc4c(c3F)CNS4(=O)=O)n[nH]2)C1 (single isomer, unassigned) [Example 143, cis-3-(3-((4-fluoro-1,1-dioxido-2,3-dihydrobenzo[d]isothiazol-5-yl)amino)-1H-pyrazol-5-yl)cyclopentyl(4-hydroxycyclohexyl)carbamate] | 242 nM | 4.9 nM |
| O=C(NCCC(F)(F)F)O[C@H]1CC[C@@H](c2cc(Nc3ccc4c(c3F)CNS4(=O)=O)n[nH]2)C1 (single isomer, unassigned) [Example 154a, cis-3-(3-((4-fluoro-1,1-dioxido-2,3-dihydrobenzo[d]isothiazol-5-yl)amino)-1H-pyrazol-5-yl)cyclopentyl(3,3,3-trifluoropropyl)carbamate] | 187 nM | 2.3 nM |
| O=C(NCCC(F)(F)F)O[C@H]1CC[C@@H](c2cc(Nc3ccc4c(c3F)CNS4(=O)=O)n[nH]2)C1 (single isomer, unassigned) [Example 154b, cis-3-(3-((4-fluoro-1,1-dioxido-2,3-dihydrobenzo[d]isothiazol-5-yl)amino)-1H-pyrazol-5-yl)cyclopentyl(3,3,3-trifluoropropyl)carbamate] | 69 nM | 3.5 nM |
| CN1Cc2c(ccc(Nc3cc([C@@H]4CC[C@H](OC(=O)NC5CCC(O)CC5)C4)[nH]n3)c2F)S1(=O)=O (single isomer, unassigned) [Example 166, cis-3-(3-((4-fluoro-2-methyl-1,1-dioxido-2,3-dihydrobenzo[d]isothiazol-5-yl)amino)-1H-pyrazol-5-yl)cyclopentyl(4-hydroxycyclohexyl)carbamate] | 74 nM | 2.9 nM |
| CN1Cc2c(ccc(Nc3cc([C@@H]4CC[C@H](OC(=O)NC5CCC(O)CC5)C4)[nH]n3)c2F)S1(=O)=O (single isomer, unassigned) [Example 167, cis-3-(3-((4-fluoro-2-methyl-1,1-dioxido-2,3-dihydrobenzo[d]isothiazol-5-yl)amino)-1H-pyrazol-5-yl)cyclopentyl(4-hydroxycyclohexyl)carbamate] | 514 nM | 9.2 nM |
| CC(C)NC(=O)O[C@H]1CC[C@@H](c2cc(Nc3ccc4c(c3F)S(=O)(=O)NC4)n[nH]2)C1 (single isomer, unassigned) [Example 186a, cis-3-(3-((7-fluoro-1,1-dioxido-2,3-dihydrobenzo[d]isothiazol-6-yl)amino)-1H-pyrazol-5-yl)cyclopentyl isopropylcarbamate] | 255 nM | 4.8 nM |
| CC(C)NC(=O)O[C@H]1CC[C@@H](c2cc(Nc3ccc4c(c3F)S(=O)(=O)NC4)n[nH]2)C1 (single isomer, unassigned) [Example 186b, cis-3-(3-((7-fluoro-1,1-dioxido-2,3-dihydrobenzo[d]isothiazol-6-yl)amino)-1H-pyrazol-5-yl)cyclopentyl isopropylcarbamate] | 44 nM | 1.7 nM |
| CCCNC(=O)O[C@H]1CC[C@@H](c2cc(Nc3ccc4c(c3F)S(=O)(=O)NC4)n[nH]2)C1 (single isomer, unassigned) [Example 189a, cis-3-(3-((7-fluoro-1,1-dioxido-2,3-dihydrobenzo[d]isothiazol-6-yl)amino)-1H-pyrazol-5-yl)cyclopentyl propylcarbamate] | 350 nM | 10 nM |
| CCCNC(=O)O[C@H]1CC[C@@H](c2cc(Nc3ccc4c(c3F)S(=O)(=O)NC4)n[nH]2)C1 (single isomer, unassigned) [Example 189b, cis-3-(3-((7-fluoro-1,1-dioxido-2,3-dihydrobenzo[d]isothiazol-6-yl)amino)-1H-pyrazol-5-yl)cyclopentyl propylcarbamate] | 41 nM | 2.7 nM |

Continued, values first:

| IC50 (CDK1/Cyclin B1) | IC50 (CDK2/Cyclin E1) | SMILES |
| --- | --- | --- |
| 237 nM | 2.6 nM | CCCNC(=O)O[C@@H]1CC[C@H](c2cc(Nc3ccc4c(c3F)CNS4(=O)=O)n[nH]2)C1 (single isomer, unassigned) [Example 138a] |
| 60 nM | 1.5 nM | CCCNC(=O)O[C@H]1CC[C@@H](c2cc(Nc3ccc4c(c3F)CNS4(=O)=O)n[nH]2)C1 (single isomer, unassigned) [Example 138b] |
| 52 nM | 0.9 nM | CC[C@H](C)NC(=O)O[C@H]1CC[C@@H](c2cc(Nc3ccc4c(c3F)CNS4(=O)=O)n[nH]2)C1 (single isomer, unassigned) [Example 139b] |
| 97 nM | 1.1 nM | CC1(NC(=O)O[C@H]2CC[C@@H](c3cc(Nc4ccc5c(c4F)CNS5(=O)=O)n[nH]3)C2)CC1 (single isomer, unassigned) [Example 140a, cis-3-(3-((4-fluoro-1,1-dioxido-2,3-dihydrobenzo[d]isothiazol-5-yl)amino)-1H-pyrazol-5-yl)cyclopentyl(1-methylcyclopropyl)carbamate] |
| 38 nM | 1.4 nM | CC1(NC(=O)O[C@H]2CC[C@@H](c3cc(Nc4ccc5c(c4F)CNS5(=O)=O)n[nH]3)C2)CC1 (single isomer, unassigned) [Example 140b, cis-3-(3-((4-fluoro-1,1-dioxido-2,3-dihydrobenzo[d]isothiazol-5-yl)amino)-1H-pyrazol-5-yl)cyclopentyl(1-methylcyclopropyl)carbamate] |
| 799 nM | 5.3 nM | COCC1(NC(=O)O[C@H]2CC[C@@H](c3cc(Nc4ccc5c(c4F)CNS5(=O)=O)n[nH]3)C2)CC1 (single isomer, unassigned) [Example 158a, cis-3-(3-((4-fluoro-1,1-dioxido-2,3-dihydrobenzo[d]isothiazol-5-yl)amino)-1H-pyrazol-5-yl)cyclopentyl(1-(methoxymethyl)cyclopropyl)carbamate] |
| 248 nM | 3.3 nM | COCC1(NC(=O)O[C@H]2CC[C@@H](c3cc(Nc4ccc5c(c4F)CNS5(=O)=O)n[nH]3)C2)CC1 (single isomer, unassigned) [Example 158b, cis-3-(3-((4-fluoro-1,1-dioxido-2,3-dihydrobenzo[d]isothiazol-5-yl)amino)-1H-pyrazol-5-yl)cyclopentyl(1-(methoxymethyl)cyclopropyl)carbamate] |
| 456 nM | 3.4 nM | CC1(NC(=O)O[C@H]2CC[C@@H](c3cc(Nc4ccc5c(c4F)CNS5(=O)=O)n[nH]3)C2)CCOC1 (single isomer, unassigned) [Example 162a, cis-3-(3-((4-fluoro-1,1-dioxido-2,3-dihydrobenzo[d]isothiazol-5-yl)amino)-1H-pyrazol-5-yl)cyclopentyl(3-methyltetrahydrofuran-3-yl)carbamate] |
| 186 nM | 1.1 nM | CC1(NC(=O)O[C@H]2CC[C@@H](c3cc(Nc4ccc5c(c4F)CNS5(=O)=O)n[nH]3)C2)CCOC1 (single isomer, unassigned) [Example 162b, cis-3-(3-((4-fluoro-1,1-dioxido-2,3-dihydrobenzo[d]isothiazol-5-yl)amino)-1H-pyrazol-5-yl)cyclopentyl(3-methyltetrahydrofuran-3-yl)carbamate] |
| 408 nM | 3.1 nM | CC1(NC(=O)O[C@H]2CC[C@@H](c3cc(Nc4ccc5c(c4F)CNS5(=O)=O)n[nH]3)C2)CCOC1 (single isomer, unassigned) [Example 162c, cis-3-(3-((4-fluoro-1,1-dioxido-2,3-dihydrobenzo[d]isothiazol-5-yl)amino)-1H-pyrazol-5-yl)cyclopentyl(3-methyltetrahydrofuran-3-yl)carbamate] |
| 158 nM | 3.7 nM | CC1(NC(=O)O[C@H]2CC[C@@H](c3cc(Nc4ccc5c(c4F)CNS5(=O)=O)n[nH]3)C2)CCOC1 (single isomer, unassigned) [Example 162d, cis-3-(3-((4-fluoro-1,1-dioxido-2,3-dihydrobenzo[d]isothiazol-5-yl)amino)-1H-pyrazol-5-yl)cyclopentyl(3-methyltetrahydrofuran-3-yl)carbamate] |
| 364 nM | 4.3 nM | CC1(NC(=O)O[C@H]2CC[C@@H](c3cc(Nc4ccc5c(c4F)CNS5(=O)=O)n[nH]3)C2)COC1 (single isomer, unassigned) [Example 164a, cis-3-(3-((4-fluoro-1,1-dioxido-2,3-dihydrobenzo[d]isothiazol-5-yl)amino)-1H-pyrazol-5-yl)cyclopentyl(3-methyloxetan-3-yl)carbamate] |
| 189 nM | 8.4 nM | CC1(NC(=O)O[C@H]2CC[C@@H](c3cc(Nc4ccc5c(c4F)CNS5(=O)=O)n[nH]3)C2)COC1 (single isomer, unassigned) [Example 164b, cis-3-(3-((4-fluoro-1,1-dioxido-2,3-dihydrobenzo[d]isothiazol-5-yl)amino)-1H-pyrazol-5-yl)cyclopentyl(3-methyloxetan-3-yl)carbamate] |
